# Experimental data published in ChEMBL document CHEMBL1201862, “PubChem BioAssay data set” (2004).
# Active and inactive are the calls of the source.
# Experiments:
# [1] = test system: HEK293; test: optical interference in Abeta FP readout, dose response, artefact control for IDE activator project, biochemical, fluorescence polarization (AID 588442); type: functional, cell-based; settings: Homo sapiens
# [2] = test system: HEK293; test: HEK cell cytotoxicity by LDH release, dose response, cytotoxicity control for IDE activator project, fluorescence, HEK cells (AID 588440); type: functional, cell-based; settings: Homo sapiens;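 further: cytotoxicity by LDH release measuring loss of membrane integrity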
# [3] = molecular target: Beta-lactamase (Pseudomonas aeruginosa, UniProt Q79MP6);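 further: biochemical dose-response test of metallo-beta-lactamase enzyme inhibition, read out by epi-absorbance; purified recombinant IMP-1 metallo-beta-lactamase with nitrocefin as substrate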
# Sequence of Beta-lactamase (Pseudomonas aeruginosa, UniProt Q79MP6) (Q79MP6 whole entry): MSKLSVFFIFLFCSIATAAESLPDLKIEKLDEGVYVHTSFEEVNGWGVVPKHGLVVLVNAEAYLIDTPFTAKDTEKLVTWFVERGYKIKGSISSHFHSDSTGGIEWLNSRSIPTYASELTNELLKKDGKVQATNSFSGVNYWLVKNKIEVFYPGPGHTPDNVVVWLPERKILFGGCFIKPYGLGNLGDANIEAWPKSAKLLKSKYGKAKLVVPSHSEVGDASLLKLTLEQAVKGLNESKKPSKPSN
# [4] = molecular target: T1, Insulin-degrading enzyme (Homo sapiens, UniProt P14735); test: activators of recombinant IDE enzyme, dose response, counter-screen for IDE activator project, biochemical, fluorescence polarization (AID 588681)
# T1 sequence (P14735 whole entry): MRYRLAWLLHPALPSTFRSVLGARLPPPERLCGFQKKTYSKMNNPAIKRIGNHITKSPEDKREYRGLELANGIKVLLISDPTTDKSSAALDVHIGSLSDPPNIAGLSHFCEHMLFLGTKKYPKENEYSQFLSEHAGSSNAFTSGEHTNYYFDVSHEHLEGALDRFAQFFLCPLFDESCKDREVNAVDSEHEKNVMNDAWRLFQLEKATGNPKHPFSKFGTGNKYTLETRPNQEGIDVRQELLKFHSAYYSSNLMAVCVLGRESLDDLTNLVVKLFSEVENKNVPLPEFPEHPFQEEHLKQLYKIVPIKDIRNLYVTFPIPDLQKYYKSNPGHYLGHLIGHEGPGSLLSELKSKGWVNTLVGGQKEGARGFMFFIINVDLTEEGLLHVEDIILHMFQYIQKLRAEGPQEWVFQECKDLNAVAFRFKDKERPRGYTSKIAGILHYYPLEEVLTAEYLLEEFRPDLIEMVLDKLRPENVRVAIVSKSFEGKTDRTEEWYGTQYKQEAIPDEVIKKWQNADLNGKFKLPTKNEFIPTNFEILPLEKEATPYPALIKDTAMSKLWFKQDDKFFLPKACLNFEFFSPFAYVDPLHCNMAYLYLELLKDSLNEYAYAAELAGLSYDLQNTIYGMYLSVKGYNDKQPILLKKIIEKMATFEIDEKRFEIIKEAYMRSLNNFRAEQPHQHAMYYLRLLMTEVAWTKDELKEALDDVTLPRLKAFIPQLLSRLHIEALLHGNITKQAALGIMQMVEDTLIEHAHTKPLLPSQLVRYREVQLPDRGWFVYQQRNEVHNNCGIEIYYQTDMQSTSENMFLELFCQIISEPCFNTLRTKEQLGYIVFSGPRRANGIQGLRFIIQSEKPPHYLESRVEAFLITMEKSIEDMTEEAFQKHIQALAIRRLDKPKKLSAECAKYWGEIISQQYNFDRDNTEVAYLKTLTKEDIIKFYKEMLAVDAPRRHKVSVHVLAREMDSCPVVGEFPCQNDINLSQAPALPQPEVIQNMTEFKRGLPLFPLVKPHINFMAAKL
# [5] = molecular target: T2, G-protein coupled receptor 55 (Homo sapiens, UniProt Q9Y2T6); test: GPR55 antagonists blocking LPI-driven arrestin recruitment, primary screen, imaging, U2OS, beta-arrestin-GFP, LPI agonist (AID 2013); type: functional;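 further: antagonist potency measured as reduced agonist-driven arrestin aggregation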
# T2 sequence (Q9Y2T6 whole entry): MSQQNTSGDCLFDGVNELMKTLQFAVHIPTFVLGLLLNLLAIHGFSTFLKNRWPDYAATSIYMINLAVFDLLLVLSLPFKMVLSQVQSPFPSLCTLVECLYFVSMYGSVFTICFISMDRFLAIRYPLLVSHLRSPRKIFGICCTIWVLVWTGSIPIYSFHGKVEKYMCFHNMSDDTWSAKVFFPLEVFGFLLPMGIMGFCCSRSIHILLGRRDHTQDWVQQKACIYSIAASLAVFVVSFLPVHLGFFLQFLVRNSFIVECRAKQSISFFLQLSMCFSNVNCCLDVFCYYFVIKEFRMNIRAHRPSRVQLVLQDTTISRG
# [6] = molecular target: T1, Insulin-degrading enzyme; test: activators of endogenous IDE in HEK cells, dose response, cell-based, fluorescence polarization (AID 588439); type: functional
# [7] = molecular target: Beta-lactamase (Salmonella choleraesuis (strain SC-B67), UniProt Q5J463)
# Sequence of Beta-lactamase (Salmonella choleraesuis (strain SC-B67), UniProt Q5J463) (Q5J463 whole entry): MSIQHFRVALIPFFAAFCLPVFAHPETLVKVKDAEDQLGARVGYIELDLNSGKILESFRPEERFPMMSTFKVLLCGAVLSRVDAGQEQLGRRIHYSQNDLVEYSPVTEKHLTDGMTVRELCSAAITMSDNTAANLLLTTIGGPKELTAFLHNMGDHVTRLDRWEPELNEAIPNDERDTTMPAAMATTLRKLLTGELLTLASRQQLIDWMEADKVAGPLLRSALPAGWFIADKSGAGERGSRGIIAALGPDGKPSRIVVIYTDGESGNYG
# [8] = molecular target: T3, Botulinum neurotoxin type A (Clostridium botulinum (strain Hall / ATCC 3502 / NCTC 13319 / Type A), UniProt P0DPI1); test: High-throughput multiplex microsphere dose response for inhibitors of toxin protease, specifically Botulinum neurotoxin light chain A protease, compounds from Powder Set 01.; type: functional, Clostridium botulinum A str. ATCC 3502; settings: read-out: EC50_MICROM
# T3 sequence (P0DPI1 2-448 limits assumed): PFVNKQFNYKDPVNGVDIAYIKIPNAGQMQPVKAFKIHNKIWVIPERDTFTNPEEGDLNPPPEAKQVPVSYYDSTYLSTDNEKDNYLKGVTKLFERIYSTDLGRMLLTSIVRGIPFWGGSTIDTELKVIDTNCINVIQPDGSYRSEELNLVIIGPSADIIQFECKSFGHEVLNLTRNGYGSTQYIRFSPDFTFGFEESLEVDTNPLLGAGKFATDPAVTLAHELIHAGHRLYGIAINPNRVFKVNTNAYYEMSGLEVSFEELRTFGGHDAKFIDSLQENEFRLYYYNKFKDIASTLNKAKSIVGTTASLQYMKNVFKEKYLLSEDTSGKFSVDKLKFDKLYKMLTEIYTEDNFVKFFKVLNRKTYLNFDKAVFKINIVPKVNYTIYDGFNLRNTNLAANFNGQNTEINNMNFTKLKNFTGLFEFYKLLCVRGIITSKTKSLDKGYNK
# [9] = molecular target: T4, Botulinum neurotoxin type F (Clostridium botulinum, UniProt P30996); test: High-throughput multiplex microsphere dose response for inhibitors of toxin protease, specifically Botulinum neurotoxin light chain F protease, compounds from Cherry Pick 01.; type: functional; settings: read-out: EC50_MICROM
# T4 sequence (P30996 1-436 limits assumed): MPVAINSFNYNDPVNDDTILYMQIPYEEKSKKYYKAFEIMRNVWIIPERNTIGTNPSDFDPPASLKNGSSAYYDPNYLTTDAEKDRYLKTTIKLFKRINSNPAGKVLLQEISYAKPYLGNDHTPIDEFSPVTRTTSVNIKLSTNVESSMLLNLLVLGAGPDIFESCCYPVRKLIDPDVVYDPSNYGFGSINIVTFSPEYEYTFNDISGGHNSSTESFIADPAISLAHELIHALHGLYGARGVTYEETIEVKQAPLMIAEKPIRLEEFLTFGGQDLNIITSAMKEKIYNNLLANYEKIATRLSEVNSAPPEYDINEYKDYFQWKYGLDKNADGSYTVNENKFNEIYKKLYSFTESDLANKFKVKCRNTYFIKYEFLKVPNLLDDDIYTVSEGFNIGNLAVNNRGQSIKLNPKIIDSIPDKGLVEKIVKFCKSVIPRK
# [10] = molecular target: T2, G-protein coupled receptor 55; test: GPR55 agonists via beta-arrestin recruitment, primary screen, imaging, U2OS cells, beta-arrestin-GFP redistribution (AID 1961); type: functional
# [11] = molecular target: T3, Botulinum neurotoxin type A; test: Confirmatory FRET assay using full length substrates for Botulinum neurotoxin light chain A protease, with Powder Set01.; type: functional
# [12] = molecular target: T3, Botulinum neurotoxin type A; test: High-throughput multiplex microsphere dose response for inhibitors of toxin protease, specifically Botulinum neurotoxin light chain A protease, compounds from Cherry Pick 01.; type: functional; settings: read-out: EC50_MICROM
# [13] = molecular target: T4, Botulinum neurotoxin type F; test: High-throughput multiplex microsphere dose response for inhibitors of toxin protease, specifically Botulinum neurotoxin light chain F protease, compounds from Cherry Pick 02.; type: functional; settings: read-out: EC50_MICROM
# [14] = molecular target: T3, Botulinum neurotoxin type A; test: High-throughput multiplex microsphere dose response for inhibitors of toxin protease, specifically Botulinum neurotoxin light chain A protease, compounds from Cherry Pick 02.; type: functional; settings: read-out: EC50_MICROM
# [15] = molecular target: Cyclin-dependent kinase 9 (Homo sapiens, UniProt P50750); type: functional;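 further: value from the CDK9 entry of a kinome-spanning kinase panel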
# [16] = molecular target: Rho-associated protein kinase 1 (Homo sapiens, UniProt Q13464); type: functional;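 further: measured within a broad kinome-wide panel profiling many kinases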
# [17] = molecular target: Dual specificity protein kinase CLK4 (Homo sapiens, UniProt Q9HAZ1); type: functional
# Sequence of Dual specificity protein kinase CLK4 (Q9HAZ1 whole entry): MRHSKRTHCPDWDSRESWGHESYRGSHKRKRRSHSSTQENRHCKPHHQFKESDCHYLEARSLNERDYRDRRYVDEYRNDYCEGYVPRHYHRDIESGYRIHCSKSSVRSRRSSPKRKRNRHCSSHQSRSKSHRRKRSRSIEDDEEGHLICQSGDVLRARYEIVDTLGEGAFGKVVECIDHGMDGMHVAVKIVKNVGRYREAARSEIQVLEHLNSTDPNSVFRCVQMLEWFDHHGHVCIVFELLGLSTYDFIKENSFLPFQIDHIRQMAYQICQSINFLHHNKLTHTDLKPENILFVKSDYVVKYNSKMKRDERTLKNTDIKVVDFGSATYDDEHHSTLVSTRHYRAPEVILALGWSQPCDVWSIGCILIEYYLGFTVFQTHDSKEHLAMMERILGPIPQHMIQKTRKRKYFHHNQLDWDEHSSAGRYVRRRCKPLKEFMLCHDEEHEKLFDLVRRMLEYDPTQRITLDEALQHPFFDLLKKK
# [18] = molecular target: Cyclin-dependent kinase 8 (Homo sapiens, UniProt P49336); test: Navigating the Kinome. Panel member name: CDK8; type: functional
# Sequence of Cyclin-dependent kinase 8 (P49336 whole entry): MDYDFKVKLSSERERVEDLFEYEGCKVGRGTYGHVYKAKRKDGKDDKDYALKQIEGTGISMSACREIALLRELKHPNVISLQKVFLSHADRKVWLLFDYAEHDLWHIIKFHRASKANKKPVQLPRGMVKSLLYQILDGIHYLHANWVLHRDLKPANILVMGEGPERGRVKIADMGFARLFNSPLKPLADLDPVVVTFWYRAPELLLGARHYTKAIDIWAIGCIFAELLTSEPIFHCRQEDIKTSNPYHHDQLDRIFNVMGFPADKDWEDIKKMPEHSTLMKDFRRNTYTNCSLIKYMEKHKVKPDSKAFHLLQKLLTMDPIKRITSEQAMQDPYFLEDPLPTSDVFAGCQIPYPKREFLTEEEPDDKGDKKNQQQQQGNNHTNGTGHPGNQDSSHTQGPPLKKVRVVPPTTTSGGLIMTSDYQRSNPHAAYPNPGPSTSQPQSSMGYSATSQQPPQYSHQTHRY
# [19] = molecular target: Platelet-derived growth factor receptor alpha (Homo sapiens, UniProt P16234); test: Navigating the Kinome. Panel member name: PDGFRA; type: functional
# [20] = molecular target: cAMP-dependent protein kinase catalytic subunit alpha (Homo sapiens, UniProt P17612); type: functional
# [21] = molecular target: Vascular endothelial growth factor receptor 2 (Homo sapiens, UniProt P35968); type: functional
# [22] = molecular target: Dual specificity tyrosine-phosphorylation-regulated kinase 1B (Homo sapiens, UniProt Q9Y463); test: Navigating the Kinome. Panel member name: DYRK1B; type: functional
# Sequence of Dual specificity tyrosine-phosphorylation-regulated kinase 1B (Q9Y463 whole entry): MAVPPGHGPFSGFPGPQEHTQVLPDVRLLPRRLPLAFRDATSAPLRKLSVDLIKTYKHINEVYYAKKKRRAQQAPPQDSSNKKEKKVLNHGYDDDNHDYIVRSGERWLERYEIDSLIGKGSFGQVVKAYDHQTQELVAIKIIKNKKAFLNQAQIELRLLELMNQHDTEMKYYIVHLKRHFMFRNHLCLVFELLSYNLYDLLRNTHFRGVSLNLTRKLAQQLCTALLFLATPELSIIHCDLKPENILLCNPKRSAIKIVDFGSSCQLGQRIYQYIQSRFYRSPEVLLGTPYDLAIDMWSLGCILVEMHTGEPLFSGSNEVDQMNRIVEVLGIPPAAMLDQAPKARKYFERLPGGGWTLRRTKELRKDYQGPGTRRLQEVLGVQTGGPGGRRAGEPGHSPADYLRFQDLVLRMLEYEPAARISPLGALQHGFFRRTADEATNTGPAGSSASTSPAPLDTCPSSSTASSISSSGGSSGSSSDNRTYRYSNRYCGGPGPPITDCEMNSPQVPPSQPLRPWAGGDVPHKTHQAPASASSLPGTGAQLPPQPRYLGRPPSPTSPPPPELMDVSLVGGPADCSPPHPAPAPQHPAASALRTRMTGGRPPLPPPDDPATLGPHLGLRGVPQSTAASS
# [23] = molecular target: Glycogen synthase kinase-3 beta (Homo sapiens, UniProt P49841); type: functional;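 further: value comes from a broad kinome profiling panel, with GSK3B as the panel member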
# [24] = molecular target: Mitogen-activated protein kinase kinase kinase kinase 4 (Homo sapiens, UniProt O95819); type: functional
# Sequence of Mitogen-activated protein kinase kinase kinase kinase 4 (O95819 whole entry): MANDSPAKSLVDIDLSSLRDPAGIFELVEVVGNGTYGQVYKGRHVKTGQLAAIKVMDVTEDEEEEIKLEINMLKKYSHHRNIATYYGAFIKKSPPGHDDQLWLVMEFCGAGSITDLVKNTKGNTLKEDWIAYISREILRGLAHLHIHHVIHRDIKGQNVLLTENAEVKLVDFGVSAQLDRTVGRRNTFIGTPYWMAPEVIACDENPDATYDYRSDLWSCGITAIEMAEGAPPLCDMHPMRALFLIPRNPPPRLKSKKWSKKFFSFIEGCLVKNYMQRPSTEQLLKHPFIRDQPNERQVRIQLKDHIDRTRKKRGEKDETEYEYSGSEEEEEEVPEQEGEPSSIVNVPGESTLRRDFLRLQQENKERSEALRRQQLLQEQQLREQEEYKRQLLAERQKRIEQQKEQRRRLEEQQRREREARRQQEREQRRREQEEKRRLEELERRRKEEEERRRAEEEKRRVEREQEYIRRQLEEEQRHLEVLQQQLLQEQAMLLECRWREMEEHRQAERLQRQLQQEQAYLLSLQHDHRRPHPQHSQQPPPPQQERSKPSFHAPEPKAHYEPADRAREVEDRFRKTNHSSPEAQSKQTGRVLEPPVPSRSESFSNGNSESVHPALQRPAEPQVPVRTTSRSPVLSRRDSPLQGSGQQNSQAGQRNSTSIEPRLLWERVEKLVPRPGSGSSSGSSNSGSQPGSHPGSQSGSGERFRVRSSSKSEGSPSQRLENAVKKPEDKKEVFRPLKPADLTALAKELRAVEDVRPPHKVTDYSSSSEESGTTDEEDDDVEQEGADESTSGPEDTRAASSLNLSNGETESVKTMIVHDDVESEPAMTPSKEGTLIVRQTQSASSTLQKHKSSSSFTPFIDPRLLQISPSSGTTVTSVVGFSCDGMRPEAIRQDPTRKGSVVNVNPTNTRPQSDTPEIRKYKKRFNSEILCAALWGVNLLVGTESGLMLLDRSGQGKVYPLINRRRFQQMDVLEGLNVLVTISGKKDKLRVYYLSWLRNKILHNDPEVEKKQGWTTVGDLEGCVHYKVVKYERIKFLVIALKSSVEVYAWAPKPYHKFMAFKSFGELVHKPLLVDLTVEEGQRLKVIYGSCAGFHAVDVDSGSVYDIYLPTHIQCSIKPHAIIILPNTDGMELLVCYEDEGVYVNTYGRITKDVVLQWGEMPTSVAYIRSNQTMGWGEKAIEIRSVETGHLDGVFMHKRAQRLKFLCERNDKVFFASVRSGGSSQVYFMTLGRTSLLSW
# [25] = molecular target: Interleukin-1 receptor-associated kinase 4 (Homo sapiens, UniProt Q9NWZ3); type: functional
# [26] = molecular target: Homeodomain-interacting protein kinase 2 (Homo sapiens, UniProt Q9H2X6); type: functional;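 further: measured within a kinome-wide kinase profiling panel, HIPK2 being one panel member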
# [27] = THP-1 cell cytotoxicity, cytotoxicity control, set 4 (AID 504911); type: functional; settings: Mycobacterium tuberculosis
# [28] = Vero cell cytotoxicity, dose response, cytotoxicity control for M. tuberculosis growth inhibitor project, Vero cells, purified and synthesized compounds, set 4 (AID 504854); type: functional; settings: Mycobacterium tuberculosis
# [29] = THP-1 cell cytotoxicity, cytotoxicity control, set 5 (AID 588443); type: functional
# [30] = Vero cell cytotoxicity, dose response, cytotoxicity control for M. tuberculosis inhibitor project, purified and synthesized compounds, set 6 (AID 588445); type: functional; settings: Mycobacterium tuberculosis
# [31] = molecular target: Aurora kinase B (Homo sapiens, UniProt Q96GD4); type: functional
# [32] = molecular target: Hepatocyte growth factor receptor (Homo sapiens, UniProt P08581); type: functional;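 further: kinase panel profiling across the kinome, with MET as the panel member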
# [33] = molecular target: Casein kinase I isoform alpha (Homo sapiens, UniProt P48729); type: functional
# [34] = molecular target: Serine/threonine-protein kinase Nek2 (Homo sapiens, UniProt P51955); type: functional
# [35] = molecular target: Dual specificity mitogen-activated protein kinase kinase 1 (Homo sapiens, UniProt Q02750); test: Navigating the Kinome. Panel member name: MAP2K1; type: functional
# [36] = molecular target: Protein kinase C theta type (Homo sapiens, UniProt Q04759); test: Navigating the Kinome. Panel member name: PRKCQ; type: functional
# [37] = molecular target: G protein-coupled receptor kinase 5 (Homo sapiens, UniProt P34947); test: Navigating the Kinome. Panel member name: GPRK5; type: functional
# [38] = molecular target: Tyrosine-protein kinase ABL1 (Homo sapiens, UniProt P00519); type: functional
# [39] = molecular target: Activated CDC42 kinase 1 (Homo sapiens, UniProt Q07912); test: Navigating the Kinome. Panel member name: ACK1; type: functional
# [40] = molecular target: Vascular endothelial growth factor receptor 1 (Homo sapiens, UniProt P17948); type: functional;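 further: measured within a kinome-wide profiling panel, FLT1 as the panel member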
# [41] = molecular target: Inhibitor of nuclear factor kappa-B kinase subunit epsilon (Homo sapiens, UniProt Q14164); test: Navigating the Kinome. Panel member name: IKBKE; type: functional
# [42] = molecular target: Cyclin-dependent kinase 5 (Homo sapiens, UniProt Q00535); type: functional;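 further: CDK5 measured as one member of a kinase profiling panel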
# [43] = molecular target: Fibroblast growth factor receptor 1 (Homo sapiens, UniProt P11362); type: functional
# [44] = molecular target: Calcium/calmodulin-dependent protein kinase type II subunit alpha (Homo sapiens, UniProt Q9UQM7); test: Navigating the Kinome. Panel member name: CAMK2A; type: functional
# [45] = molecular target: Platelet-derived growth factor receptor beta (Homo sapiens, UniProt P09619); type: functional;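 further: value comes from a kinome panel, with PDGFRB tested as one panel member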
# [46] = molecular target: Focal adhesion kinase 1 (Homo sapiens, UniProt Q05397); type: functional;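 further: measured as one member of a kinome panel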
# [47] = molecular target: Dual specificity tyrosine-phosphorylation-regulated kinase 1A (Homo sapiens, UniProt Q13627); type: functional;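 further: measured against DYRK1A as one member of a broad kinome profiling panel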
# [48] = molecular target: Tyrosine-protein kinase receptor TYRO3 (Homo sapiens, UniProt Q06418); type: functional;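 further: TYRO3 value obtained as one member of a kinome-wide profiling panel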
# [49] = molecular target: Proto-oncogene tyrosine-protein kinase receptor Ret (Homo sapiens, UniProt P07949); type: functional;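 further: measured within a kinome-wide profiling panel, RET as the panel member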
# [50] = molecular target: Macrophage colony-stimulating factor 1 receptor (Homo sapiens, UniProt P07333); type: functional;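 further: value comes from the Navigating the Kinome screening panel, CSF1R member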
# [51] = molecular target: Serine/threonine-protein kinase Chk1 (Homo sapiens, UniProt O14757); type: functional;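 further: measured as one member of a kinome-wide kinase profiling panel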
# [52] = molecular target: Leukocyte tyrosine kinase receptor (Homo sapiens, UniProt P29376); test: Navigating the Kinome. Panel member name: LTK; type: functional
# [53] = molecular target: Aurora kinase A (Homo sapiens, UniProt O14965); type: functional;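 further: value from the Navigating the Kinome kinase panel profiling, panel entry STK6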
# [54] = molecular target: DNA dC->dU-editing enzyme APOBEC-3A (Homo sapiens, UniProt P31941); test: SAR analysis of small molecule inhibitors of APOBEC3A DNA Deaminase via a fluorescence-based single-stranded DNA deaminase assay.; type: functional; settings: read-out: IC50_Mean
# [55] = molecular target: DNA dC->dU-editing enzyme APOBEC-3G (Homo sapiens, UniProt Q9HC16); test: APOBEC3G deaminase inhibitors, SAR follow-up, biochemical, fluorescence, single-stranded DNA substrate (AID 602136); type: functional; settings: read-out: IC50_Mean
# Sequence of DNA dC->dU-editing enzyme APOBEC-3G (Q9HC16 whole entry): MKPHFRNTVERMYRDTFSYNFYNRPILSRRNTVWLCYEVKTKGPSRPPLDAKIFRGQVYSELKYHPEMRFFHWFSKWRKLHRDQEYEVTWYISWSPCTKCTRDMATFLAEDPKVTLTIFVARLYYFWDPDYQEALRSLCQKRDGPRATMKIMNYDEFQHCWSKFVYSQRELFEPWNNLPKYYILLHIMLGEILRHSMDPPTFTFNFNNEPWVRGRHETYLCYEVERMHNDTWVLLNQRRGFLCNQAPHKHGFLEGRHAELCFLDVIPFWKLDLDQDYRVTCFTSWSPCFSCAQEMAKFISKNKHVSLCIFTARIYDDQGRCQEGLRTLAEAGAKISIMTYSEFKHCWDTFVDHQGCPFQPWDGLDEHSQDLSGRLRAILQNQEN
smiles,measurement,setting,value
CCN(CC)C1=CC2=CC(=C(C#N)C#N)CCC2CC1 (stereo not given),EC50,[1],> 54.7 µM (inactive)
same,IC50,[2],> 89.2 µM (inactive)
same,IC50,[3],3.32 µM (active)
same,EC50,[4],> 54.7 µM (inactive)
same,IC50,[5],3 µM (active)
same,EC50,[6],> 54.7 µM (inactive)
same,IC50,[7],1.34 µM (active)
COc1ccccc1[N+]1=N[C-](c2ccc([N+](=O)[O-])cc2)CC1c1ccccc1 (stereo not given),EC50,[8],1.4 µM (active)
same,EC50,[9],1.8 µM (active)
same,EC50,[10],< 0.5 µM (active)
same,EC50,[11],0.2 µM (active)
same,EC50,[12],1.7 µM (active)
same,IC50,[3],> 59.6 µM (inactive)
same,EC50,[13],0.4 µM (active)
same,EC50,[14],1 µM (active)
same,IC50,[7],> 59.6 µM (inactive)
c1ccc(C2CCc3[nH]ncc32)cc1 (stereo not given),Ki,[15],31.6 µM (active)
same,Ki,[16],20 µM (active)
same,Ki,[17],12.6 µM (active)
same,Ki,[18],39.8 µM (active)
same,Ki,[19],79.4 µM (active)
same,Ki,[20],39.8 µM (active)
same,Ki,[21],50.1 µM (active)
same,Ki,[22],39.8 µM (active)
CN(C)c1ccc(-c2c(-c3ccc4[nH]nc(N)c4c3)nnn2Cc2ccccc2)cc1,Ki,[23],0.0251 µM (active)
same,Ki,[24],0.0794 µM (active)
same,Ki,[25],> 10 µM (inactive)
same,Ki,[26],> 3.16 µM (inactive)
same,Ki,[20],0.631 µM (active)
O=C(CSc1nc2c(c(=O)[nH]1)CCC2)NC1CCCCC1,CC50,[27],> 100 µM (active)
same,CC50,[28],> 100 µM (active)
CCC(C)NC(=O)CSc1nc2ccccc2c(=O)[nH]1 (stereo not given),CC50,[29],> 100 µM (active)
same,CC50,[30],> 100 µM (active)
CC(C)c1cc(=O)[nH]c2[nH][nH]c(=O)c12,Ki,[31],63.1 µM (active)
same,Ki,[32],63.1 µM (active)
same,Ki,[24],100 µM (active)
same,Ki,[33],20 µM (active)
same,Ki,[17],5.01 µM (active)
same,Ki,[34],63.1 µM (active)
same,Ki,[35],100 µM (active)
same,Ki,[36],> 100 µM (inactive)
same,Ki,[37],20 µM (active)
same,Ki,[18],31.6 µM (active)
same,Ki,[19],63.1 µM (active)
same,Ki,[38],63.1 µM (active)
same,Ki,[20],> 50.1 µM (inactive)
same,Ki,[39],25.1 µM (active)
same,Ki,[40],79.4 µM (active)
same,Ki,[41],63.1 µM (active)
same,Ki,[42],15.8 µM (active)
same,Ki,[43],63.1 µM (active)
same,Ki,[44],63.1 µM (active)
same,Ki,[45],> 79.4 µM (inactive)
same,Ki,[46],79.4 µM (active)
same,Ki,[47],15.8 µM (active)
same,Ki,[21],> 100 µM (inactive)
same,Ki,[48],31.6 µM (active)
same,Ki,[49],31.6 µM (active)
same,Ki,[50],10 µM (active)
same,Ki,[51],12.6 µM (active)
same,Ki,[52],15.8 µM (active)
same,Ki,[53],15.8 µM (active)
same,Ki,[22],15.8 µM (active)
CCn1c(SCC(=O)NCc2ccco2)nnc1-c1ccccc1O,IC50,[54],> 99 µM (inactive)
same,IC50,[55],> 99 µM (inactive)
